What was measured:
Format in all cases: cell-based, human
786-0 = experiment: NCI 60 cell line screen (SRB), Renal Cancer
From the text: (§1) The operation of this screen utilizes 60 different human tumor cell lines, representing leukemia, melanoma and cancers of the lung, colon, brain, ovary, breast, prostate, and kidney. The aim is to prioritize for further evaluation, synthetic compounds or natural product samples showing selective growth inhibition or cell killing of particular tumor cell lines. This screen is unique in that the complexity of a 60 cell line dose response produced by a given compound results in a biological response pattern which can be utilized in pattern recognition algorithms. Using these algorithms, it is possible to assign a putative mechanism of action to a test compound, or to determine that the response pattern is unique and not similar to that of any of the standard prototype compounds included in the NCl database (see DTP Overview tab). In addition, following characterization of various cellular molecular targets in the 60 cell lines, it may be possible to select compounds most likely to interact with a specific molecular target.
(§2) The human tumor cell lines of the cancer screening panel are grown in RPMI 1640 medium containing 5% fetal bovine serum and 2 mM L-glutamine. For a typical screening experiment, cells are inoculated into 96 well microtiter plates in 100 μL at plating densities ranging from 5,000 to 40,000 cells/well depending on the doubling time of individual cell lines. After cell inoculation, the microtiter plates are incubated at 37° C., 5% CO2, 95% air and 100% relative humidity for 24 h prior to addition of experimental drugs.
(§3) After 24 h, two plates of each cell line are fixed in situ with TCA, to represent a measurement of the cell population for each cell line at the time of drug addition (Tz). Experimental drugs are solubilized in dimethyl sulfoxide at 400-fold the desired final maximum test concentration and stored frozen prior to use. At the time of drug addition, an aliquot of frozen concentrate is thawed and diluted to twice the desired final maximum test concentration with complete medium containing 50 μg/ml gentamicin. Additional four, 10-fold or ½ log serial dilutions are made to provide a total of five drug concentrations plus control. Aliquots of 100 μl of these different drug dilutions are added to the appropriate microtiter wells already containing 100 μl of medium, resulting in the required final drug concentrations.
(§4) Following drug addition, the plates are incubated for an additional 48 h at 37° C., 5% CO2, 95% air, and 100% relative humidity. For adherent cells, the assay is terminated by the addition of cold TCA. Cells are fixed in situ by the gentle addition of 50 μl of cold 50% (w/v) TCA (final concentration, 10% TCA) and incubated for 60 minutes at 4° C. The supernatant is discarded, and the plates are washed five times with tap water and air dried. Sulforhodamine B (SRB) solution (100 μl) at 0.4% (w/v) in 1% acetic acid is added to each well, and plates are incubated for 10 minutes at room temperature. After staining, unbound dye is removed by washing five times with 1% acetic acid and the plates are air dried. Bound stain is subsequently solubilized with 10 mM trizma base, and the absorbance is read on an automated plate reader at a wavelength of 515 nm. For suspension cells, the methodology is the same except that the assay is terminated by fixing settled cells at the bottom of the wells by gently adding 50 μl of 80% TCA (final concentration, 16% TCA). Using the seven absorbance measurements [time zero, (Tz), control growth, (C), and test growth in the presence of drug at the five concentration levels (Ti)], the percentage growth is calculated at each of the drug concentrations levels. Percentage growth inhibition is calculated as: [(Ti−Tz)/(C−Tz)]×100 for concentrations for which Ti>/=Tz [(Ti−Tz)/Tz]×100 for concentrations for which Ti<Tz.
(§5) Three dose response parameters are calculated for each experimental agent. […]

UO-31 = experiment: NCI 60 cell line screen (SRB), Renal Cancer
From the text: as §1, §2, §3, §4, §5

HCT-15 = experiment: NCI 60 cell line screen (SRB), Colon Cancer
From the text: as §1, §2, §3, §4, §5

HCT-116 = experiment: NCI 60 cell line screen (SRB), Colon Cancer
From the text: as §1, §2, §3, §4, §5

KM12 = experiment: NCI 60 cell line screen (SRB), Colon Cancer
From the text: as §1, §2, §3, §4, §5

SW-620 = experiment: NCI 60 cell line screen (SRB), Colon Cancer
From the text: as §1, §2, §3, §4, §5

COLO 205 = experiment: NCI 60 cell line screen (SRB), Colon Cancer
From the text: as §1, §2, §3, §4, §5

CCRF-CEM = experiment: NCI 60 cell line screen (SRB), Leukemia
From the text: as §1, §2, §3, §4, §5

K-562 = experiment: NCI 60 cell line screen (SRB), Leukemia
From the text: as §1, §2, §3, §4, §5

SMILES: COc1cccc(CCNC(=O)CC(c2ccccc2)(c2ccccc2)c2ccccc2)c1 [Compound Z3]
- GI50 (786-0; 786-0): 10.6 µM
- TGI (786-0; 786-0): >1.00E−04
- Percent Growth (786-0; 786-0, Log10 Concentration −4.0): 7%
- Percent Growth (786-0; 786-0, Log10 Concentration −5.0): 51%
- Percent Growth (786-0; 786-0, Log10 Concentration −6.0): 86%
- Percent Growth (786-0; 786-0, Log10 Concentration −7.0): 98%
- Percent Growth (786-0; 786-0, Log10 Concentration −8.0): 86%
- CC50 (786-0; 786-0, read-out: LC50 (the source's name)): > 100 µM
- GI50 (UO-31; UO-31): 4.75 µM
- TGI (UO-31; UO-31): >1.00E−04
- Percent Growth (UO-31; UO-31, Log10 Concentration −4.0): 20%
- Percent Growth (UO-31; UO-31, Log10 Concentration −5.0): 33%
- Percent Growth (UO-31; UO-31, Log10 Concentration −6.0): 85%
- Percent Growth (UO-31; UO-31, Log10 Concentration −7.0): 98%
- Percent Growth (UO-31; UO-31, Log10 Concentration −8.0): 86%
- CC50 (UO-31; UO-31, read-out: LC50 (the source's name)): > 100 µM
- GI50 (HCT-15; HCT-15): > 100 µM
- TGI (HCT-15; HCT-15): >1.00E−04
- Percent Growth (HCT-15; HCT-15, Log10 Concentration −4.0): 57%
- Percent Growth (HCT-15; HCT-15, Log10 Concentration −5.0): 62%
- Percent Growth (HCT-15; HCT-15, Log10 Concentration −6.0): 86%
- Percent Growth (HCT-15; HCT-15, Log10 Concentration −7.0): 99%
- Percent Growth (HCT-15; HCT-15, Log10 Concentration −8.0): 103%
- CC50 (HCT-15; HCT-15, read-out: LC50 (the source's name)): > 100 µM
- GI50 (HCT-116; HCT-116): 2.58 µM
- TGI (HCT-116; HCT-116): 2.67E−05
- Percent Growth (HCT-116; HCT-116, Log10 Concentration −4.0): −22%
- Percent Growth (HCT-116; HCT-116, Log10 Concentration −5.0): 16%
- Percent Growth (HCT-116; HCT-116, Log10 Concentration −6.0): 74%
- Percent Growth (HCT-116; HCT-116, Log10 Concentration −7.0): 91%
- Percent Growth (HCT-116; HCT-116, Log10 Concentration −8.0): 97%
- CC50 (HCT-116; HCT-116, read-out: LC50 (the source's name)): > 100 µM
- GI50 (KM12; KM12): 4.75 µM
- TGI (KM12; KM12): >1.00E−04
- Percent Growth (KM12; KM12, Log10 Concentration −4.0): 14%
- Percent Growth (KM12; KM12, Log10 Concentration −5.0): 25%
- Percent Growth (KM12; KM12, Log10 Concentration −6.0): 101%
- Percent Growth (KM12; KM12, Log10 Concentration −7.0): 107%
- Percent Growth (KM12; KM12, Log10 Concentration −8.0): 111%
- CC50 (KM12; KM12, read-out: LC50 (the source's name)): > 100 µM
- GI50 (SW-620; SW-620): 85.2 µM
- TGI (SW-620; SW-620): >1.00E−04
- Percent Growth (SW-620; SW-620, Log10 Concentration −4.0): 49%
- Percent Growth (SW-620; SW-620, Log10 Concentration −5.0): 64%
- Percent Growth (SW-620; SW-620, Log10 Concentration −6.0): 97%
- Percent Growth (SW-620; SW-620, Log10 Concentration −7.0): 105%
- Percent Growth (SW-620; SW-620, Log10 Concentration −8.0): 95%
- CC50 (SW-620; SW-620, read-out: LC50 (the source's name)): > 100 µM
- GI50 (COLO 205; COLO 205): 12.8 µM
- TGI (COLO 205; COLO 205): >1.00E−04
- Percent Growth (COLO 205; COLO 205, Log10 Concentration −4.0): 27%
- Percent Growth (COLO 205; COLO 205, Log10 Concentration −5.0): 53%
- Percent Growth (COLO 205; COLO 205, Log10 Concentration −6.0): 106%
- Percent Growth (COLO 205; COLO 205, Log10 Concentration −7.0): 117%
- Percent Growth (COLO 205; COLO 205, Log10 Concentration −8.0): 99%
- CC50 (COLO 205; COLO 205, read-out: LC50 (the source's name)): > 100 µM
- GI50 (CCRF-CEM): 8.16 µM
- TGI (CCRF-CEM): >1.00E−04
- Percent Growth (CCRF-CEM; Log10 Concentration −4.0): 34%
- Percent Growth (CCRF-CEM; Log10 Concentration −5.0): 48%
- Percent Growth (CCRF-CEM; Log10 Concentration −6.0): 74%
- Percent Growth (CCRF-CEM; Log10 Concentration −7.0): 94%
- Percent Growth (CCRF-CEM; Log10 Concentration −8.0): 62%
- CC50 (CCRF-CEM; read-out: LC50 (the source's name)): > 100 µM
- GI50 (K-562; K-562): 6.03 µM
- TGI (K-562; K-562): >1.00E−04
- Percent Growth (K-562; K-562, Log10 Concentration −4.0): 32%
- Percent Growth (K-562; K-562, Log10 Concentration −5.0): 36%
- Percent Growth (K-562; K-562, Log10 Concentration −6.0): 100%
- Percent Growth (K-562; K-562, Log10 Concentration −7.0): 100%
- Percent Growth (K-562; K-562, Log10 Concentration −8.0): 102%
- CC50 (K-562; K-562, read-out: LC50 (the source's name)): > 100 µM
